pEC50: −log10 of the molar value. “And” between values parts separate entries of the source, which are not always exact repeats. Equal values may be shown once.
Experiments:
[1] = tested on: Jurkat cells; test: Cytotoxicity against Jurkat cells; format: cell-based, human
[2] = tested on: HEK293 cells; test: Cell growth inhibition (resazurin, 48 hours), HEK293; format: cell-based; conditions: Table 2, HEK293, human embryonic kidney, read-out: EC50 (nM), mean ± SD
[3] = biological target: CYP2D6 (Homo sapiens, UniProt P10635); test: Preliminary P450 inhibition screen, CYP2D6
Chain of CYP2D6 (P10635 whole entry): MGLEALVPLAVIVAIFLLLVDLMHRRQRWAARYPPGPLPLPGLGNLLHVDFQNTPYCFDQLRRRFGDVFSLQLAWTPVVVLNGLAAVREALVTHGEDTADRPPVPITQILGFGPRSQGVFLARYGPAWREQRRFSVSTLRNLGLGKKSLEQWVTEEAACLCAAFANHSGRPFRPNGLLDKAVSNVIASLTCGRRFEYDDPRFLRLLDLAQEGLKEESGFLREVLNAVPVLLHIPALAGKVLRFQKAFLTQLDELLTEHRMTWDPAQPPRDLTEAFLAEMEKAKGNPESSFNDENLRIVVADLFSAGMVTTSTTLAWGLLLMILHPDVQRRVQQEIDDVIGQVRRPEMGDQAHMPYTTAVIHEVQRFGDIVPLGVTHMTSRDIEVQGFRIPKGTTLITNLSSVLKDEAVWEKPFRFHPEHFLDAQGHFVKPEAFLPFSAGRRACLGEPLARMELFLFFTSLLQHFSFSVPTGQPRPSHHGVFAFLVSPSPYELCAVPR
Description: (§1) These studies consisted of solubility assessment, LogD^7.4 determination and a preliminary screen to detect cytochrome P450 enzyme inhibition.

[4] = Maximum Tolerated Dose (MTD) determination; format: in vivo, BALB/c mice
Description: In vivo studies were designed to determine the MTD of Salinosporamide A when administered intravenously to female BALB/c mice.
Animals were observed daily for clinical signs and were weighed individually twice weekly until the end of the experiment (maximum of 14 days after the last day of dosing).

[5] = biological target: CYP3A4 (Homo sapiens, UniProt P08684); test: Preliminary P450 inhibition screen, CYP3A4
Chain of CYP3A4 (P08684 whole entry): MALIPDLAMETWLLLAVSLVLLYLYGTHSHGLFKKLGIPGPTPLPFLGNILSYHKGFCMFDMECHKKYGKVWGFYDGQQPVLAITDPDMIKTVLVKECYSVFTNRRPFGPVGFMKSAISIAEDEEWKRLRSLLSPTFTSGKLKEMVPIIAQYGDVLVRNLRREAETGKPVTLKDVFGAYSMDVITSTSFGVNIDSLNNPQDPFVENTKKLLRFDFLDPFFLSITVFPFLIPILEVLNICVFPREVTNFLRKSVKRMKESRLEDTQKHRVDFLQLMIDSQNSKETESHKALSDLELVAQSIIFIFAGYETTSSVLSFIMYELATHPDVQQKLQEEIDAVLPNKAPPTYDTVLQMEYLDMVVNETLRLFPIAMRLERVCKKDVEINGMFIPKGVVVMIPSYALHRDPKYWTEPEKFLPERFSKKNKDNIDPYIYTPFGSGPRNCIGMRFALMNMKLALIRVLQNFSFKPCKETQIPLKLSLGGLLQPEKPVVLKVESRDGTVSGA
Description: as §1

[6] = Solubility assessment; conditions: PBS, pH 7.4, aqueous buffer
Description: as §1

[7] = tested on: tumor cell lines; test: Cytotoxicity / growth inhibition, summary over several cell lines; conditions: 48 h, read-out: EC50 values against RPMI 8226 and the prostate cell lines
[8] = as above; conditions: human, mouse
[9] = biological target: chymotrypsin-like activity of human erythrocyte 20S proteasomes (Homo sapiens, UniProt P28074); test: biochemical; conditions: EC50, chymotrypsin-like activity of human erythrocyte 20S proteasomes, separate lots of proteasomes
Protocol: The substrate, suc-LLVY-AMC, was prepared as a 20 mM solution in DMSO and stored at −20° C. Human erythrocyte 20S proteasomes were obtained from BIOMOL (Cat. # SE-221). The proteasome can cleave suc-LLVY-AMC into suc-LLVY and free AMC and the activity can then be determined by measuring the fluorescence of the released AMC (λex=390 nm and λem=460 nm ). The proteasomes were activated by SDS and stored on ice as with the experiments using rabbit muscle proteasomes. […] The series was then diluted 20-fold with assay buffer and pre-incubated with proteasomes at 37° C. The reaction was initiated with substrate, and the release of AMC was followed in a Fluoroskan microplate fluorimeter. Data were collected and plotted as the mean of triplicate points.

[10] = tested on: PANC-1 cells; test: Cell growth inhibition (resazurin, 48 hours), PANC-1; format: cell-based; conditions: Table 2, PANC-1, human pancreatic carcinoma, read-out: EC50 (nM), mean ± SD
[11] = LogD7.4 determination; conditions: pH 7.4
Description: as §1

[12] = tested on: PARP and Pro-Caspase 3 cleavage in RPMI 8226 cells; test: Cleavage of PARP and Pro-Caspase 3 (western blot), RPMI 8226; format: cell-based, human; conditions: 100 nM, 0, 8 or 24 hours
Protocol: Total protein lysates were made and 20 μg of the lysates were then resolved under reducing/denaturing conditions and blotted onto nitrocellulose. The blots were then probed with anti-PARP or anti-caspase 3 antibodies followed by stripping and reprobing with an anti-actin antibody.
25 μg of the lysates were then resolved under reducing/denaturing conditions and blotted onto nitrocellulose. The blots were then probed with anti-PARP or anti-caspase 3 antibodies followed by stripping and reprobing with an anti-actin antibody.

[13] = in vitro; conditions: mouse
[14] = tested on: LPS-induced plasma TNF; test: Inhibition of in vivo LPS-induced TNF; conditions: 0.125 or […] i.v., 30 minutes post-LPS (2 mg/kg i.p.), mice
Protocol: Male Swiss Webster mice (12/group weighing 20-25 g) were injected with LPS (2 mg/kg) by the i.p. route. […] Ninety minutes after LPS injection, the mice were anesthetized with Isoflurane and bled by cardiac puncture to obtain plasma. Remaining blood pellet was then resuspended in 500 μL of PBS to wash away residual serum proteins and centrifuged again. Supernatant was removed and blood pellet frozen for analysis of proteasome inhibition in packed whole blood lysate.
Animals were dosed i.v. with 4 ml/kg. A vehicle control solution was also prepared by making the same 1:160 dilution with 100% DMSO into 10% solutol solution giving a final concentration of 9.375% solutol in water and 0.625% DMSO. Measurements of plasma TNF were performed using the Biosource mTNF Cytoset kit (Biosource Intl., Camarillo, Calif.; catalog #CMC3014) according to manufacturer's instructions. Samples were diluted 1:60 for the assay.

[15] = tested on: p21 and p27 in HEK293 cells and HEK293 NF-κB/Luciferase reporter clone; test: Western blot of cell cycle regulatory proteins p21 and p27; format: cell-based, human; conditions: various concentrations, preliminary results
Description: The ubiquitin-proteasome pathway is an essential proteolytic system involved in cell cycle control by regulating the degradation of cyclins and cyclin-dependent kinase (Cdk) inhibitors such as p21 and p27. Pagano, et al., Science 269:682 (1995), Kisselev, et al., Chem Biol 8:739 (2001), King, et al., Science 274:1652 (1996). Furthermore, p21 and p27 protein levels are increased in the presence of proteasome inhibitors. Fukuchi, et al., Biochim Biophys Acta 1451:206 (1999), Takeuchi, et al., Jpn J Cancer Res 93:774 (2002).
The Western blots presented in FIG. 33 were reprobed using antibodies against p21 and p27 to determine the endogenous level of each protein and anti-Tubulin antibody was used to confirm equal loading of protein.

**Q.** What does the source list for C[C@@]12OC(=O)[C@]1([C@@H](O)[C@@H]1C=CCCC1)NC(=O)[C@@H]2CCCl [Formula II-16, Salinosporamide A]?
**A.** pEC50 ([1]; Homo sapiens, Jurkat): 8.00; % max cell kill ([1]; Table 5, Jurkat Cells): 97%; EC50 [2]: 47 nM; inhibition at 10 µM [3]: 19%; behavioral changes during the course of the experiment ([4]; 0.01 to 0.5 mg/kg i.v.): No behavioral changes were noted; dose well tolerated when administered daily for five consecutive days ([4]; i.v., qdx5, female BALB/c mice): up to 0.1 mg/kg; single intravenous dose tolerated ([4]; i.v., single dose (qdx1), female BALB/c mice): up to 0.25 mg/kg; inhibition at 10 µM [5]: 6%; solubility [6]: 9.6 µM and 3 µg/mL; pEC50 [7]: 7.43 to 8.00; EC50 at 48 h [8]: 10 to 200 nM; pEC50 [9]: ~9.60 and 9.61 to 10.35 and 9.60 to 10.35; EC50 [10]: 60 nM; LogD7.4 [11]: 2.4; induction of PARP cleavage [12]: noticeable at 8 hours and complete by 24 hours; viability at […] [13]: 96%; reduction of LPS-induced plasma TNF levels [14]: approximately 65%; p21 and p27 protein levels [15]: elevated
